Results on 38 compounds are retold here after ChEMBL document CHEMBL3779822, “Indolyl-3-ethanone-α-thioethers: A promising new class of non-toxic antimalarial agents” (Eur J Med Chem, 2016).

A word on the pIC50: it is the IC50 on a negative log10 scale, so that one unit is a factor of ten.

Experiment [1] deals with Plasmodium falciparum. As to the kind of experiment: Antiplasmodial activity against Plasmodium falciparum 3D7 infected in human erythrocytes assessed as inhibition of parasite growth after 48 hrs by parasite lactate dehydrogenase assay. Format: functional, organism-based. The note with it: 3D7, 48 h.
Experiment [2] relates to HeLa. As to the kind of experiment: Growth inhibition of human HeLa cells after 48 hrs by resazurin assay. The class given is cell-based.
A short description of experiment [3]: Selectivity index, ratio if IC50 for human HeLa cells to IC50 for Plasmodium falciparum 3D7. The class given is functional.

pIC50: −log10 of the molar value.

Consider `O=C(COc1ccccc1)c1c[nH]c2ccccc12`, for which the pIC50 in experiment [1] and in experiment [2] was < 3.30 in each case.

As to `O=C(CSc1ccc(Br)cc1)c1c[nH]c2ccc(Cl)cc12`, in experiment [3], the “Ratio IC50” value is given as 5556. Further, the pIC50 in experiment [1] is 7.05; in experiment [2], < 3.30.

With `CC(SCC(=O)c1c[nH]c2ccccc12)c1ccccc1` (stereo not drawn), the “Ratio IC50” value in experiment [3] came to 1. Further, the results for the pIC50 in experiment [1] and in experiment [2] were 3.91 and 4.12, respectively.

For `CC(C)(C)c1ccc(SCC(=O)c2c[nH]c3ccccc23)cc1`, in experiment [3], the “Ratio IC50” value amounted to 56. Moreover, the figures for the pIC50 in experiment [1] and in experiment [2] were 5.05 and < 3.30, respectively.

Turning to `O=C(CSCc1ccc(Br)cc1)c1c[nH]c2ccccc12`, the pIC50 in experiment [1] and in experiment [2] was < 3.30 each time.

As for `O=C(CSc1ccc(Br)cc1)c1c[nH]c2c(F)cccc12`, in experiment [3], the “Ratio IC50” value stood at 208. The pIC50 in experiment [1] is 5.62; in experiment [2] it was < 3.30.

In the case of `O=C(CNc1ccccc1)c1c[nH]c2ccccc12`, in experiment [3], the “Ratio IC50” value is listed as 7. The pIC50 in experiment [1] is 4.14; in experiment [2], < 3.30.

As for `O=C(CSCc1ccc(F)cc1)c1c[nH]c2ccccc12`, in experiment [3], the “Ratio IC50” value turned out to be 9. Further, the figures for the pIC50 in experiment [1] and in experiment [2] were 4.24 and < 3.30, respectively.

For `O=C(CSCc1cccc(Br)c1)c1c[nH]c2ccccc12`, the “Ratio IC50” value in experiment [3] came to 3. Besides, the results for the pIC50 in experiment [1] and in experiment [2] were 4.89 and 4.46, respectively.

In the case of `O=C(CSc1ccccc1Cl)c1c[nH]c2ccccc12`, the pIC50 in experiment [1] and in experiment [2] was < 3.30 throughout.

As to `O=C(CSc1ccc(Br)cc1)c1c[nH]c2c(I)cccc12`, in experiment [3], the “Ratio IC50” value was determined as 1. Further, the pIC50 in experiment [1] is 4.35; in experiment [2], 4.25.

Regarding `O=C(CSCc1ccc(Cl)cc1)c1c[nH]c2ccccc12`, the pIC50 in experiment [1] and in experiment [2] was < 3.30 throughout.

As to `O=C(CSc1ccc(Br)cc1)c1c[nH]c2ccccc12`, the “Ratio IC50” value in experiment [3] came out at 385. For the same compound, the pIC50 in experiment [1] was 5.89; in experiment [2], < 3.30.

For `O=C(CSc1ccc(Br)cc1)c1c[nH]c2cc(F)ccc12`, the “Ratio IC50” value in experiment [3] amounted to 385. For the same compound, the figures for the pIC50 in experiment [1] and in experiment [2] were 5.89 and < 3.30, respectively.

As for `Cn1cc(C(=O)CSc2ccc(Br)cc2)c2ccccc21`, in experiment [3], the “Ratio IC50” value was found to be 33. Further, the pIC50 in experiment [1] was 4.82; in experiment [2] it was < 3.30.

With `CN(C)c1ccc(SCC(=O)c2c[nH]c3ccccc23)cc1`, the “Ratio IC50” value in experiment [3] stood at 1. The pIC50 in experiment [1] was 3.98; in experiment [2], 4.22.

Regarding `Cc1ccc(SCC(=O)c2c[nH]c3ccccc23)cc1`, in experiment [3], the “Ratio IC50” value came out at 26. Further, the figures for the pIC50 in experiment [1] and in experiment [2] were 4.72 and < 3.30, respectively.

As for `O=C(CSCCc1ccccc1)c1c[nH]c2ccccc12`, the “Ratio IC50” value in experiment [3] came out at 2. Also, the pIC50 was 5.11 in experiment [1] and 4.85 in experiment [2].

Turning to `O=C(CSc1ccc(Br)cc1)c1c[nH]c2ccc(Br)cc12`, in experiment [3], the “Ratio IC50” value amounted to 4167. Also, the results for the pIC50 in experiment [1] and in experiment [2] were 6.92 and < 3.30, respectively.

As for `O=C(CSc1ccc([N+](=O)[O-])cc1)c1c[nH]c2ccccc12`, the “Ratio IC50” value in experiment [3] was 2083. The figures for the pIC50 in experiment [1] and in experiment [2] were 6.62 and < 3.30, respectively.

Regarding `O=C(COc1ccc(Cl)cc1)c1c[nH]c2ccccc12`, the “Ratio IC50” value in experiment [3] was found to be 278. Further, the pIC50 is 5.74 in experiment [1] and < 3.30 in experiment [2].

Take `O=C(CSc1ccc(Br)cc1)c1c[nH]c2cc(Br)c(F)cc12`: the “Ratio IC50” value in experiment [3] is 26. In addition, the pIC50 was 4.72 in experiment [1] and < 3.30 in experiment [2].

In the case of `O=C(CSc1ccccc1)c1c[nH]c2ccccc12`, in experiment [3], the “Ratio IC50” value amounted to 10. The pIC50 was 4.54 in experiment [1] and 3.55 in experiment [2].

For `O=C(CSc1ccc(Br)cc1)c1c[nH]c2cc(Br)ccc12`, the “Ratio IC50” value in experiment [3] was 2. Further, the pIC50 in experiment [1] is 3.55; in experiment [2], < 3.30.

For `O=C(CSc1cccc(Cl)c1)c1c[nH]c2ccccc12`, the “Ratio IC50” value in experiment [3] is 11. The pIC50 in experiment [1] is 4.36; in experiment [2] it was < 3.30.

Regarding `O=C(CSCc1ccccc1)c1c[nH]c2ccccc12`, the “Ratio IC50” value in experiment [3] was 4. The pIC50 is 3.88 in experiment [1] and < 3.30 in experiment [2].

As to `Cc1cc(Br)c2[nH]cc(C(=O)CSc3ccc(Br)cc3)c2c1`, in experiment [3], the “Ratio IC50” value was 124. Further, the results for the pIC50 in experiment [1] and in experiment [2] were 5.74 and 3.65, respectively.

In the case of `O=C(CSc1ccc(Br)cc1)c1c[nH]c2cc(Cl)ccc12`, the “Ratio IC50” value in experiment [3] came to 179. For the same compound, the pIC50 was 5.55 in experiment [1] and < 3.30 in experiment [2].

In the case of `O=C(CSc1ccc(Br)cc1)c1c[nH]c2cc(Cl)c(F)cc12`, in experiment [3], the “Ratio IC50” value turned out to be 42. Further, the pIC50 in experiment [1] is 4.92; in experiment [2], < 3.30.

Regarding `Nc1ccc(SCC(=O)c2c[nH]c3ccccc23)cc1`, the “Ratio IC50” value in experiment [3] is recorded as 2. Further, the results for the pIC50 in experiment [1] and in experiment [2] were 4.70 and 4.44, respectively.

As for `O=C(CSc1ccc(Br)cc1)c1cn(Cc2ccccc2)c2ccccc12`, in experiment [3], the “Ratio IC50” value worked out at 185. Also, the results for the pIC50 in experiment [1] and in experiment [2] were 5.57 and < 3.30, respectively.

Regarding `O=C(CSc1ccc(F)cc1)c1c[nH]c2ccccc12`, the “Ratio IC50” value in experiment [3] is 294. The results for the pIC50 in experiment [1] and in experiment [2] were 5.77 and < 3.30, respectively.

Take `O=C(CSc1ccc(Cl)cc1)c1c[nH]c2ccccc12`: the “Ratio IC50” value in experiment [3] amounted to 357. Besides, the results for the pIC50 in experiment [1] and in experiment [2] were 5.85 and < 3.30, respectively.

For the compound `O=C(CNc1ccc(Cl)cc1)c1c[nH]c2ccccc12`, the “Ratio IC50” value in experiment [3] is 0.6. Moreover, the pIC50 in experiment [1] was 4.54; in experiment [2] it was 4.80.

Turning to `Cc1ccccc1SCC(=O)c1c[nH]c2ccccc12`, the “Ratio IC50” value in experiment [3] is listed as 42. For the same compound, the results for the pIC50 in experiment [1] and in experiment [2] were 4.92 and < 3.30, respectively.

Take `O=C(CSc1cccc(Br)c1)c1c[nH]c2ccccc12`: the “Ratio IC50” value in experiment [3] is 5. The pIC50 is 3.97 in experiment [1] and < 3.30 in experiment [2].

As to `O=C(CSc1cccc(F)c1)c1c[nH]c2ccccc12`, the “Ratio IC50” value in experiment [3] is 128. For the same compound, the pIC50 in experiment [1] was 5.41; in experiment [2], < 3.30.

Turning to `CC[C@H]1CN2CCc3cc(OC)c(OC)cc3[C@@H]2C[C@@H]1C[C@H]1NCCc2cc(OC)c(OC)cc21` [EMETINE], in experiment [2], the pIC50 was 6.43.
